{"source": "the supplement of paper PMC10307832", "experiment_in_all_cases": "relative viability (nuclei count vs DMSO), 5 days (fraction); higher = more cells survive", "key": {"NCI-H1755": {"test_system": "NCI-H1755", "summary_of_the_method": "(§1)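 Lung cancer cell lines were pin-tool dosed in 1536-well plates on the day after seeding, with either a lone drug or a fixed anchor-drug dose plus five library-drug doses (not always all listed) in √10 steps. Nuclei were counted on 4× images after 5 days. Relative viability is the ratio of treated-well to vehicle-well nuclei counts, with each value a median of duplicate plates.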"}, "NCI-H2009": {"test_system": "NCI-H2009", "summary_of_the_method": "as §1"}, "NCI-H2087": {"test_system": "NCI-H2087", "summary_of_the_method": "as §1"}, "NCI-H2126": {"test_system": "NCI-H2126", "summary_of_the_method": "as §1"}, "NCI-H2170": {"test_system": "NCI-H2170", "summary_of_the_method": "as §1"}, "NCI-H322M": {"test_system": "NCI-H322M", "summary_of_the_method": "as §1"}, "NCI-H441": {"test_system": "NCI-H441", "summary_of_the_method": "as §1"}, "NCI-H522": {"test_system": "NCI-H522", "summary_of_the_method": "as §1"}, "NCI-H596": {"test_system": "NCI-H596", "summary_of_the_method": "as §1"}, "NCI-H647": {"test_system": "NCI-H647", "summary_of_the_method": "as §1"}, "SW 900": {"test_system": "SW 900", "summary_of_the_method": "as §1"}}}
{"compound": "COCC1(CO)C(=O)C2CCN1CC2", "note": "(centres undefined) [PRIMA-1MET] + Cc1nc(Nc2ncc(C(=O)Nc3c(C)cccc3Cl)s2)cc(N2CCN(CCO)CC2)n1 [Dasatinib] (partner 0.075 µM)", "values": [{"measurement": "relative viability", "setting": "NCI-H1755; first compound 0.2 µM", "result": 0.476}, {"measurement": "relative viability", "setting": "NCI-H1755; first compound 0.6325 µM", "result": 0.471}, {"measurement": "relative viability", "setting": "NCI-H1755; first compound 2 µM", "result": 0.397}, {"measurement": "relative viability", "setting": "NCI-H1755; first compound 6.325 µM", "result": 0.434}, {"measurement": "relative viability", "setting": "NCI-H1755; first compound 20 µM", "result": 0.423}, {"measurement": "relative viability", "setting": "NCI-H2009; first compound 0.2 µM", "result": 0.298}, {"measurement": "relative viability", "setting": "NCI-H2009; first compound 0.6325 µM", "result": 0.314}, {"measurement": "relative viability", "setting": "NCI-H2009; first compound 2 µM", "result": 0.294}, {"measurement": "relative viability", "setting": "NCI-H2009; first compound 6.325 µM", "result": 0.142}, {"measurement": "relative viability", "setting": "NCI-H2009; first compound 20 µM", "result": 0.0053}, {"measurement": "relative viability", "setting": "NCI-H2087; first compound 0.2 µM", "result": 0.471}, {"measurement": "relative viability", "setting": "NCI-H2087; first compound 0.6325 µM", "result": 0.727}, {"measurement": "relative viability", "setting": "NCI-H2087; first compound 2 µM", "result": 0.626}, {"measurement": "relative viability", "setting": "NCI-H2087; first compound 6.325 µM", "result": 0.876}, {"measurement": "relative viability", "setting": "NCI-H2087; first compound 20 µM", "result": 0.289}, {"measurement": "relative viability", "setting": "NCI-H2126; first compound 0.2 µM", "result": 0.722}, {"measurement": "relative viability", "setting": "NCI-H2126; first compound 0.6325 µM", "result": 0.58}, {"measurement": "relative viability", "setting": "NCI-H2126; first compound 2 µM", "result": 0.643}, {"measurement": "relative viability", "setting": "NCI-H2126; first compound 6.325 µM", "result": 0.646}, {"measurement": "relative viability", "setting": "NCI-H2126; first compound 20 µM", "result": 0.605}, {"measurement": "relative viability", "setting": "NCI-H2170; first compound 0.2 µM", "result": 0.554}, {"measurement": "relative viability", "setting": "NCI-H2170; first compound 0.6325 µM", "result": 0.46}, {"measurement": "relative viability", "setting": "NCI-H2170; first compound 2 µM", "result": 0.497}, {"measurement": "relative viability", "setting": "NCI-H2170; first compound 6.325 µM", "result": 0.604}, {"measurement": "relative viability", "setting": "NCI-H2170; first compound 20 µM", "result": 0.586}, {"measurement": "relative viability", "setting": "NCI-H322M; first compound 0.2 µM", "result": 0.265}, {"measurement": "relative viability", "setting": "NCI-H322M; first compound 0.6325 µM", "result": 0.258}, {"measurement": "relative viability", "setting": "NCI-H322M; first compound 6.325 µM", "result": 0.243}, {"measurement": "relative viability", "setting": "NCI-H322M; first compound 20 µM", "result": 0.0311}, {"measurement": "relative viability", "setting": "NCI-H441; first compound 0.2 µM", "result": 0.461}, {"measurement": "relative viability", "setting": "NCI-H441; first compound 0.6325 µM", "result": 0.728}, {"measurement": "relative viability", "setting": "NCI-H441; first compound 2 µM", "result": 0.544}, {"measurement": "relative viability", "setting": "NCI-H441; first compound 6.325 µM", "result": 0.571}, {"measurement": "relative viability", "setting": "NCI-H441; first compound 20 µM", "result": 0.134}, {"measurement": "relative viability", "setting": "NCI-H522; first compound 0.2 µM", "result": 0.797}, {"measurement": "relative viability", "setting": "NCI-H522; first compound 0.6325 µM", "result": 0.738}, {"measurement": "relative viability", "setting": "NCI-H522; first compound 2 µM", "result": 0.852}, {"measurement": "relative viability", "setting": "NCI-H522; first compound 6.325 µM", "result": 0.68}, {"measurement": "relative viability", "setting": "NCI-H522; first compound 20 µM", "result": 0.0665}, {"measurement": "relative viability", "setting": "NCI-H596; first compound 0.2 µM", "result": 0.701}, {"measurement": "relative viability", "setting": "NCI-H596; first compound 0.6325 µM", "result": 0.563}, {"measurement": "relative viability", "setting": "NCI-H596; first compound 2 µM", "result": 0.597}, {"measurement": "relative viability", "setting": "NCI-H596; first compound 6.325 µM", "result": 0.79}, {"measurement": "relative viability", "setting": "NCI-H596; first compound 20 µM", "result": 0.147}, {"measurement": "relative viability", "setting": "NCI-H647; first compound 0.2 µM", "result": 0.165}, {"measurement": "relative viability", "setting": "NCI-H647; first compound 0.6325 µM", "result": 0.16}, {"measurement": "relative viability", "setting": "NCI-H647; first compound 2 µM", "result": 0.156}, {"measurement": "relative viability", "setting": "NCI-H647; first compound 6.325 µM", "result": 0.173}, {"measurement": "relative viability", "setting": "NCI-H647; first compound 20 µM", "result": 0.0339}, {"measurement": "relative viability", "setting": "SW 900; first compound 0.2 µM", "result": 0.632}, {"measurement": "relative viability", "setting": "SW 900; first compound 0.6325 µM", "result": 0.642}, {"measurement": "relative viability", "setting": "SW 900; first compound 2 µM", "result": 0.386}, {"measurement": "relative viability", "setting": "SW 900; first compound 6.325 µM", "result": 0.0491}, {"measurement": "relative viability", "setting": "SW 900; first compound 20 µM", "result": 0.0965}]}
